Source: PMC2944806, “HLA Class I Binding of HBZ Determines Outcome in HTLV-1 Infection” (PLoS Pathogens, 2010)

Experiments:
[1] = target: T1, HLA class I molecule B*0702 (Homo sapiens, UniProt P01889); test: REVEAL HLA-peptide binding assay, B*0702; design: concentration or dose not given beside the values; settings: assembly of peptide-HLA complex by ELISA with conformation-dependent anti-HLA antibody, relative to positive control peptide for that allele, comparable within an allele only
T1 construct: purchased ProImmune Ltd., Oxford, UK
Protocol: (§1) The REVEAL HLA-peptide binding assay (ProImmune Ltd., Oxford, UK) was used to quantify peptide-HLA binding. For each allele-peptide combination that was tested, assembly of peptide-HLA complexes was quantified by ELISA with a conformation-dependent anti-HLA antibody. Samples of assembling peptide-HLA complexes were taken at a defined time point and snap-frozen in liquid nitrogen prior to analysis. The assembly for each peptide-HLA complex was then compared against a positive control peptide for that allele as the percentage of assembled peptide relative to that control. We selected four HLA class I alleles and 50 HTLV-1 peptides for each allele. The allele choice was based on allele frequency in the Kagoshima database and included 2 A alleles and 2 B alleles as well as alleles for which we knew that the epitope prediction tended to be poor. The 50 HTLV-1 nonamer peptides for each allele were selected to represent a range of predicted binding affinities, from weak to strong binding peptides. They originated from 4 HTLV-1 reference strain proteins: Tax, HBZ, Gag and Polymerase.
(§2) Note the binding score is with respect to a reference good binding peptide for each allele and therefore scores can be compared within an allele but not between alleles.

[2] = target: T2, HLA class I molecule A*2402 (Homo sapiens, UniProt P04439, D101N/D140Y/D185E/E176V/E190D/F33S/G103R/G107R/I119L/I121M/I306V/K335N/L105A/L180Q/L300P/N151K/N90K/Q86E/Q94H/R106L/R138H/R89G/T104I/T345S/V100E/W191G/Y123F); type: binding; settings: REVEAL assay, assembly of peptide-HLA complex by ELISA with conformation-dependent anti-HLA antibody, relative to positive control peptide for that allele, comparable within an allele only
T2 construct: purchased ProImmune Ltd., Oxford, UK

[3] = target: T3, HLA class I molecule A*0201 (Homo sapiens, UniProt P04439, D140Y/D185E/D98H/E176V/E277Q/G131W/G231S/I119V/I121R/I166T/I218V/L300P/L318F/N151K/N90K/P208A/P217A/Q86G/Q94H/R138H/R169H/T345S); type: binding; settings: REVEAL assay, assembly of peptide-HLA complex by ELISA with conformation-dependent anti-HLA antibody, relative to positive control peptide for that allele, comparable within an allele only
T3 construct: purchased ProImmune Ltd., Oxford, UK

[4] = target: HLA class I molecule B*3501 (Homo sapiens, UniProt P01889, A329T/A93T/A95T/C349S/D201E/D98Y/E176V/E187L/E204Q/E69T/I218V/K202T/L119I/Q94N/R155S/R180L/S121R/S35A/S48A/T118I/V127L/V306I/V36M/Y140S/Y91F); test: REVEAL HLA-peptide binding assay, B*3501; settings: assembly of peptide-HLA complex by ELISA with conformation-dependent anti-HLA antibody, relative to positive control peptide for that allele, comparable within an allele only
Protocol: as §1, §2

[5] = system: autologous B-LCL loaded with HBZ26–34 peptide; test: Chromium release assay, peptide-loaded B-LCL; type: cell-based, human; settings: 1 µM HBZ 26–34 peptide, 4 h, ^51Cr release; data not shown
Protocol: PBMC from HLA A*0201^+ and HLA A*0201^− HTLV-1 infected individuals were depleted of CD8^+ cells, then enriched for CD25^+ cells using MACS beads (Miltenyi Biotech, Germany), according to manufacturer's instructions. CD25^+ cells were cultured for 16h to allow for viral antigen expression and presentation, then labelled with ^51Cr by incubating for 1h in the presence of 50–100 µCi Na2CrO4 (MP Biomedicals, USA). Labelled cells were washed extensively and placed in culture in triplicate (40,000 cells/well) in the presence of defined ratios of HBZ-1, a CTL clone which recognises HBZ 26–34 in the context of HLA A*0201 [37], alone or in the presence of 5% Triton x-100 (Sigma Aldrich). As a control, ^51Cr labelled B-LCL (autologous to the CTL clone) were cultured at the same ratios, with and without 1 µM HBZ 26–34 peptide. […] Total specific lysis was calculated using the following formula: [chromium release (test well)−chromium release (no CTL control)]/ [chromium release (Triton−100% lysis)−chromium release (no CTL control)]*100, expressed as a percentage specific lysis of total cells. […] Percentage infected cells lysed was calculated using the following formula: [Percentage total cells lysed]/[fraction of CD4^+CD25^+ cells that are infected i.e. provirus positive].

Sequence | Score (experimentally measured binding affinity, % binding compared to control peptide) [1] [%] | Score (experimentally measured binding affinity, % binding compared to control peptide) [2] [%] | Score (experimentally measured binding affinity, % binding compared to control peptide) [3] [%] | Score (experimentally measured binding affinity, % binding compared to control peptide) [4] [%] | Lysis of peptide-loaded autologous B-LCL by the HBZ-specific CD8^+ T cell clone [5]
TFLKTAAPL [HTLV-1 nonamer peptide] | 28.15 | 86.12 | – | – | –
GFGQSLLFG [HTLV-1 nonamer peptide] | 0 | 1.06 | 0.29 | 0 | –
AVLDGLLSL [HTLV-1 nonamer peptide] | 18.76 | 1.41 | 92.9 | 0 | –
RICPINYSL [HTLV-1 nonamer peptide] | 110.59 | 77.87 | 71.46 | – | –
ASGLFRCLP [HTLV-1 nonamer peptide] | 2 | 4.14 | 2.99 | 0 | –
LAAHHWLNF [HTLV-1 nonamer peptide] | 4.59 | 35.91 | – | 75.12 | –
RVIGSALQF [HTLV-1 nonamer peptide] | 87.63 | 65.17 | – | 42.94 | –
QAMRKYSPF [HTLV-1 nonamer peptide] | 140.22 | 56.78 | – | 69.18 | –
SAQWIPWRL [HTLV-1 nonamer peptide] | 0 | 27.07 | 24.03 | 14.94 | –
GLLSLEEEL [HTLV-1 nonamer peptide, HBZ26–34, recognised in the context of HLA-A*0201] | – | – | 63.68 | – | could be lysed by the CD8^+ T cell clone
IQYSSFHSL [HTLV-1 nonamer peptide] | 2.94 | 87.52 | 93.93 | – | –
KALMPVFTL [HTLV-1 nonamer peptide] | 40.22 | 8.05 | 79.88 | 11.5 | –
